Results: US20190209618A1, “METHODS AND COMPOSITIONS FOR EXPANSION OF HEMATOPOIETIC STEM AND/OR PROGENITOR CELLS EMPLOYING A CYTOCHROME P450 1B1 (CYP1B1) INHIBITOR OR A MUSASHI-2 (MSI2) ACTIVATOR” (McMaster University, priority 2016, published 2019)
Read-outs that look alike come from different tables or passages of the source. Values belong to the compound of their own block, whether it stands above or below them.

Legend:
Lin− CD34+CB HSPCs = assay: High throughput screen of CYP family inhibitors for in vitro HSPC expansion
Description: FIG. 16: Primary screen for inhibitors of Cytochrome […] oxidases and promotion of in vitro HSPC expansion by primitive marker expression. 1000 flow sorted Lin− CD34+CB HSPCs were plated per well of a 96-well plate and test compounds were added at three doses (0.1 uM, 1.0 uM, 10 uM) in triplicate. Cell cultures were refreshed with medium every 3 days and at day 10 cells were counted and assessed for CD34 marker expression. […] Columns marked by “x” have a >2-fold increase compared to DMSO. Columns marked by “o” show at least a 1.5-fold increase compared to DMSO control. […] Data shown as mean+/−SEM from n=3 cultures.
FIG. 17: Primary screen for inhibitors of Cytochrome […] oxidases and promotion of in vitro HSPC expansion by total number CD34 marked cells. 1000 flow sorted Lin− CD34+CB HSPCs were plated per well of a 96-well plate and test compounds were added at three doses (0.1 uM, 1.0 uM, 10 uM) in triplicate. Cell cultures were refreshed with medium every 3 days and at day 10 cells were counted and assessed for CD34 marker expression. […] Columns marked by “x” have a >2-fold increase compared to DMSO. Columns marked by “o” show at least a 1.5-fold increase compared to DMSO control. […] Data shown as mean+/−SEM from n=3 cultures.
A screening approach was undertaken that tested the function of 3 alkaloid, 9 coumarin, and 17 flavonoid based compounds ([…], Table 1). The screening approach used 96-well plates seeded with 1000 FACS-purified CD34+ cells and treatment with 3 concentrations of each compound performed in triplicate culture wells (9 wells total per compound). Cells were cultured for 10 days and resultant growth was measured for cell number and surface marker expression by automated flow cytometer (MACS Quant).

CYP enzymes = conditions: cited from earlier work
Lin− CD34+ cells [1] = assay: MSI2 OE and control suspension cultures with AHR antagonist SR1; format: cell-based, human; conditions: SR1 750 nM vs DMSO, 10 days
Description: GFP^+ cells were isolated (20,000 cells per culture) and allowed to proliferate with or without SR1 for an additional 7 days at which point they were counted and immunophenotyped for CD34 and CD133 expression. […] GFP^+ cells were isolated (20,000 cells per culture) and allowed to proliferate with FICZ (200 nM; Santa Cruz Biotechnology) or DMSO (0.1%) for an additional 3 days at which point they were immunophenotyped for CD34 and CD133 expression.

AHR = AHR ChIP-seq comparison to downregulated gene sets; design: species or system human; conditions: ChIP-seq-identified AHR targets; SR1 500 nM, UM171 35 nM gene sets
From the text: Percentage of down regulated genes with AHR bound regions was then graphed for each gene set. P-values were generated with Fisher's exact test between gene lists.

Lin− CD34+ cells [2] = assay: HSPC expansion with TMS; format: cell-based, human; conditions: TMS 10 μM vs 0.1% DMSO, during culture
Description: Lin^− CD34^+ cells were cultured for 72 hours (lentiviral treated but non-transduced flow-sorted GFP^− cells) in StemSpan medium containing growth factors IL-6 (20 ng/ml), SCF (100 ng/ml), FLT3-L (100 ng/ml) and TPO (20 ng/ml) before the addition of the CYP1B1 inhibitor TMS (Abcam) at a concentration of 10 μM or mock treatment with 0.1% DMSO. Equal numbers of cells (12,000 per condition) were then allowed to proliferate for 7 days at which point they were counted and immunophenotyped for CD34 and CD133 expression.

[3] = summary statement referring to the Examples

self-renewal and expansion of hematopoietic stem and progenitor cell cultures (Lin− CD34+CB HSPCs; [3]): promote the self-renewal and expansion
SMILES: COc1ccc(-c2cc(=O)c3c(O)cc(O)cc3o2)cc1 [Acacetin, 5,7-dihydroxy-2-(4-methoxyphenyl)-4H-1-benzopyran-4-one]

SMILES: O=c1cc(-c2ccccc2)oc2cc(O)cc(O)c12 [Chrysin, 5,7-Dihydroxy-2-phenyl-4H-chromen-4-one]
self-renewal and expansion of hematopoietic stem and progenitor cell cultures (Lin− CD34+CB HSPCs): promote the self-renewal and expansion

SMILES: O=c1c(-c2ccc(O)cc2)coc2cc(O)ccc12 [Daidzein, 7-Hydroxy-3-(4-hydroxyphenyl) chromen-4-one]
IC50 (CYP enzymes): 7.9 µM

self-renewal and expansion of hematopoietic stem and progenitor cell cultures (Lin− CD34+CB HSPCs; [3]): promote the self-renewal and expansion
SMILES: O=C1CC(c2ccc(O)cc2)Oc2cc(O)cc(O)c21 (centres unmarked) [Naringenin, 5,7-Dihydroxy-2-(4-hydroxyphenyl)chroman-4-one]

SMILES: CC(C)n1cnc2c(NCCc3ccc(O)cc3)nc(-c3csc4ccccc34)nc21 [SR1, StemRegenin 1]
increase in percentage of CD34+ cells (Lin− CD34+ cells [1]; MSI2 OE cultures): 4 fold
increase in percentage of CD34+ cells (Lin− CD34+ cells [1]; control transduced cultures): 8 fold
enrichment of direct transcriptional targets of AHR in downregulated gene set compared to UM171 (AHR): 5.6 fold

% CD34+ at day 10 relative to DMSO (Lin− CD34+CB HSPCs; 1000 CD34+ cells per well, 0.1, 1.0, 10 uM, 10 days): > 2 fold
self-renewal and expansion of hematopoietic stem and progenitor cell cultures (Lin− CD34+CB HSPCs; [3]): promote the self-renewal and expansion
SMILES: COc1cc(/C=C/c2ccc(OC)cc2OC)cc(OC)c1 [TMS, (E)-2,3′,4,5′-Tetramethoxystilbene]
increase in frequency of CD34+ cells (Lin− CD34+ cells [2]): 1.5 fold
increase in total numbers of CD34+ cells (Lin− CD34+ cells [2]): 2 fold
